Test results as given in US20230075007A1 (IMPACT NATURALS, INC., priority 2021, published 2023).

Experiments:
[1] = Dispersion in simulated gastric and intestinal fluids; format: physicochemical
Experimental: Dispersion of the formulations in simulated gastric and intestinal fluids is evaluated over a 12 hour period.

[2] = cited from earlier work
CB2 = CB2 (Homo sapiens, UniProt P34972); settings: WHO assessment; cited from earlier work
Chain of CB2 (P34972 whole entry, species assumed): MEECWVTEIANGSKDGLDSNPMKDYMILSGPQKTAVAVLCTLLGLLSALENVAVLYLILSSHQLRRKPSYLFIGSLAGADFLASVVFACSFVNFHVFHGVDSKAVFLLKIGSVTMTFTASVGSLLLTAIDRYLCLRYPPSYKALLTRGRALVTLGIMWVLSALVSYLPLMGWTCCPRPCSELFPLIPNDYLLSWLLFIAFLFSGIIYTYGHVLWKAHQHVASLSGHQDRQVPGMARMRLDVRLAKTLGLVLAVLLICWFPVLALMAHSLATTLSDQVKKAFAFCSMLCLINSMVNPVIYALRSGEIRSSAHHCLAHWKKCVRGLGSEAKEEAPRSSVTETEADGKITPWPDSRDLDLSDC

## C=C(C)[C@@H]1CCC(C)=C[C@H]1c1c(O)cc(CCCCC)cc1O [Cannabidiol]
[1]; FaSSGF, pH 1.2, 12 hour period
  dispersion: no dispersion
[1]; FaSSIF, FeSSIF and FaSSGF overall
  dispersion pattern in the biorelevant media: poor dispersion
[1]; FaSSIF, pH 6.5, 12 hour period
  dispersion: about 20%
[1]; FeSSIF, pH 5.5, 12 hour period
  dispersion: about 20%
[2]
  aqueous solubility: approximately 0.013 milligrams per milliliter
CB2
  affinity to CB2: low affinity
